Experiments:
[1] = molecular target: T1, Beta-secretase 1 (Homo sapiens, UniProt P56817)
[2] = molecular target: Cathepsin D (Homo sapiens, UniProt P07339)
Description: Inhibition of human cathepsin D

[3] = molecular target: T1, Beta-secretase 1; remark: listed apart in the source
Description: Inhibition of BACE1 in human neuroblastoma cells

T1 sequence (P56817 whole entry): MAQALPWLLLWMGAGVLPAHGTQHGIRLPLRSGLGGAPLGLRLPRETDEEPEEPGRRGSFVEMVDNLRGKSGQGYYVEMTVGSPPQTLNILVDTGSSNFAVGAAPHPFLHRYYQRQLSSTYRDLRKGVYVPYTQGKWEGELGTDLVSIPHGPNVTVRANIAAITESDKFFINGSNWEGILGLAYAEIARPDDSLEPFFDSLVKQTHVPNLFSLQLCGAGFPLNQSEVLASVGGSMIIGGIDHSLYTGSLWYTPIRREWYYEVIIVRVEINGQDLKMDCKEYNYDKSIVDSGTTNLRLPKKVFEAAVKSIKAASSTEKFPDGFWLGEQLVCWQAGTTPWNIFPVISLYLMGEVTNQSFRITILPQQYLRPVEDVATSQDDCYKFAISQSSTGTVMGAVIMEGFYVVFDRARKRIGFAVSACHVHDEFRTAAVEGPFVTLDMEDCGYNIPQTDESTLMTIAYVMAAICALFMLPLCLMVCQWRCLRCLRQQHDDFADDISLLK
Chain of Cathepsin D (P07339 65-162 limits assumed): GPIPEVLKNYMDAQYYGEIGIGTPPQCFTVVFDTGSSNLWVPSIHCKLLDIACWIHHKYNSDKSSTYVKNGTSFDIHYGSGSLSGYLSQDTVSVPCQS
Chain of Cathepsin D (P07339 169-412 limits assumed): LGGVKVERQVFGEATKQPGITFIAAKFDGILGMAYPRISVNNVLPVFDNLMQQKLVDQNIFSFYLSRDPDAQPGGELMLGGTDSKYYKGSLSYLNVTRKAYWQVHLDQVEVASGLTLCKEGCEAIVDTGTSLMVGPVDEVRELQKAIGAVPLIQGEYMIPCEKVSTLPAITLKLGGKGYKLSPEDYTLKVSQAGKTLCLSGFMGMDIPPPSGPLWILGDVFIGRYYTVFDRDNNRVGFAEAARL

SMILES	Ki [1] [nM]	Ki [2] [nM]	IC50 [3] [nM]
CC(C)CNC[C@@H](NC[C@H](Cc1ccccc1)NC(=O)c1cc(C(=O)N[C@H](C)c2ccccc2)cc(N(C)S(C)(=O)=O)c1)[C@H](C)O	> 1000	–	–
CCC[C@H](O)[C@H](NC[C@H](Cc1ccccc1)NC(=O)c1cc2c3c(c1)c(CC)cn3CC1(CC1)S(=O)(=O)N2C)C(=O)NC(C)C	0.47	2000	14
